For 29 compounds, IC50 results are on record in PubChem BioAssay AID588647 (Sanford-Burnham Center for Chemical Genomics, 2011).

Calls of active or inactive are those of the source. No rule for the calls is given here. Some results are limits rather than exact numbers.

This test has as its target intestinal alkaline phosphatase (Mus musculus). As to the kind of experiment: mouse IAP inhibition by analogs – biochemical, luminescence, set 2, SAR follow-up (AID 588647). To be noted: purified mouse IAP, luminescent substrate read-out.
For the compound `O=C(N/N=C/c1cc(Br)ccc1F)c1ccc(O)cc1`, the IC50 is > 100 µM (inactive).
Under `COc1ccc(OC)c(NC(=O)CCNS(=O)(=O)c2ccc3c(c2)oc(=O)n3C)c1` stands > 100 µM (inactive); under `O=C(NCc1ccccc1)C1CCCN(S(=O)(=O)c2ccc3[nH]c(=O)oc3c2)C1` (centres undefined), > 100 µM (inactive).
Consider `O=C(N/N=C/c1c(F)cccc1Cl)c1ccc(O)cc1`, for which the IC50 was > 100 µM (inactive).
As to `O=C(N/N=C/c1ccccc1F)c1ccc(O)cc1`, the IC50 was > 100 µM (inactive).
With `CC(C)c1ccc(NC(=O)CCNS(=O)(=O)c2ccc3c(c2)oc(=O)n3C)cc1`, the IC50 is > 100 µM (inactive).
Under `COc1cccc(CNS(=O)(=O)c2ccc3[nH]c(=O)oc3c2)c1` stands 40 µM.
As to `C/C(=N\NC(=O)c1cc(O)c(O)c(O)c1)c1ccc(O)cc1O`, the IC50 was 0.777 µM.
Consider `COc1ccc(/C=N/NC(=O)c2cc(O)c(O)c(O)c2)cc1OC`, for which the IC50 is > 100 µM (inactive).
Under `O=C(CCNS(=O)(=O)c1ccc2[nH]c(=O)oc2c1)NCc1ccc(C(F)(F)F)cc1` stands > 100 µM (inactive).
In the case of `O=C(CCCNS(=O)(=O)c1ccc2[nH]c(=O)oc2c1)NCCc1ccc(O)cc1`, the IC50 is 4.2 µM.
Take `O=C(CCNS(=O)(=O)c1ccc2[nH]c(=O)oc2c1)NCc1ccccc1Cl`: the IC50 was > 100 µM (inactive).
With `Cc1ccc(C)c(NC(=O)CCNS(=O)(=O)c2ccc3[nH]c(=O)oc3c2)c1`, the IC50 is 0.4 µM.
Take `Cc1ccc(NC(=O)CCNS(=O)(=O)c2ccc3c(c2)oc(=O)n3C)c(C)c1`: the IC50 is > 100 µM (inactive).
Take `Cc1ccc(NC(=O)CCNS(=O)(=O)c2ccc3[nH]c(=O)oc3c2)cc1C`: the IC50 was 84 µM.
Turning to `O=C(CCNS(=O)(=O)c1ccc2[nH]c(=O)oc2c1)NCc1cccc(C(F)(F)F)c1`, the IC50 is 70 µM.
On to `O=C(N/N=C/c1ccccc1C(F)(F)F)c1cc(O)c(O)c(O)c1`, for which the IC50 is 8.46 µM.
`COc1ccc(CNS(=O)(=O)c2ccc3[nH]c(=O)oc3c2)cc1`: the IC50 is 98 µM.
Consider `O=C(N/N=C/c1c(F)cccc1Cl)c1ccc(O)cc1O`, for which the IC50 was > 100 µM (inactive).
As for `CSc1cccc(NC(=O)C2CCCN(S(=O)(=O)c3ccc4c(c3)oc(=O)n4C)C2)c1` (centres undefined), the IC50 is > 100 µM (inactive).
Turning to `CCOc1ccc(CNC(=O)C2CCCN(S(=O)(=O)c3ccc4[nH]c(=O)oc4c3)C2)cc1OC` (centres undefined), the IC50 was > 100 µM (inactive).
Turning to `COc1ccc(OC)c(NC(=O)C2CCCN(S(=O)(=O)c3ccc4c(c3)oc(=O)n4C)C2)c1` (centres undefined), the IC50 was > 100 µM (inactive).
Under `O=C(CCCNS(=O)(=O)c1ccc2[nH]c(=O)oc2c1)NCc1ccc2c(c1)OCO2` stands 45 µM.
On to `O=C(CCNS(=O)(=O)c1ccc2c(c1)CCC2)NCCc1ccc2c(c1)OCO2`, for which the IC50 was > 100 µM (inactive).
Under `CC(C)c1ccc(NC(=O)C2CCCN(S(=O)(=O)c3ccc4c(c3)oc(=O)n4C)C2)cc1` (centres undefined) stands > 100 µM (inactive); under `O=C(CCNS(=O)(=O)c1ccc2[nH]c(=O)oc2c1)NCc1ccc(Cl)cc1`, 88 µM.
Take `CC(C)c1ccc(/C=N/NC(=O)c2cc(O)c(O)c(O)c2)cc1`: the IC50 is 57.5 µM.
Under `O=C(NCc1ccc2c(c1)OCO2)C1CCCN(S(=O)(=O)c2ccc3[nH]c(=O)oc3c2)C1` (centres undefined) stands > 100 µM (inactive); under `O=c1[nH]c2ccc(S(=O)(=O)NCc3ccc4c(c3)OCO4)cc2o1`, > 100 µM (inactive).
